Results published in PubChem BioAssay AID624491 (Broad Institute, 2012).
Activity calls are given as the source filed them.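 The calls were made as follows: active = fitted curve crossing a set activation limit at or below the highest valid dose tested; inconclusive = flat fit at 30 to 70% activation, or poor fit; inactive = the rest, including signal decreases.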

What follows are compounds tested on D54 ERlucT glycosylation luciferase reporter, luminescence, 24 h (assay: blockers of NLG process in reporter cells – D54 ERlucT cells, luminescence, cherry-picks, dose response (AID 624491);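 also: signal gain reflects blocked N-linked glycosylation of a luciferase reporter; actives raise luciferase signal so AC26 marks activators of the reporter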).
Work on `CC(C)(C)c1nnc2sc(SCC(=O)c3ccc4c(c3)OCCO4)nn2c1=O` yielded an AC26 of 5230 nM.
`COc1ccc([C@@H]2[C@@H]3C(=O)N(C(C)(C)C)C(=O)[C@@H]3[C@]3(Cc4ccccc4)C(=O)N(c4cccc(C)c4)C(=O)N23)cc1` showed an AC26 of 1300 nM.
`C/C(=N\NC(=O)c1c(Cl)c(C)nn1C)c1ccc(NC(=O)C2CCC2)cc1` was tested, and the AC26 was 3.55 nM.
With `CN(C)CCN1C(=O)c2cccc3cc([N+](=O)[O-])cc(c23)C1=O` the AC26 was 73.5 nM.
With `NC(=O)/C=C/C(=O)Nc1ccc(Cl)cc1` the AC26 was 15100 nM.
`COc1ccc(OC)c(-c2cc(-c3cccnc3)nc(N)c2C#N)c1` gave an AC26 of 2230 nM.
In the case of `COc1ccc(/C=C/C(=O)c2ccc(Cl)s2)cc1O`, the AC26 is reported as 4730 nM.
Work on `CN=c1sc(C(=O)Nc2cccc(Cl)c2)cc(=O)n1C` yielded an AC26 of 349 nM.
With `CC12CC[C@H]3[C@@H](CCC4(O)C[C@H](O)CCC34/C=N/NC(=O)c3ccccc3O)C1(O)CCC2C1=CC(=O)OC1` (some centres not stated) the AC26 was 6060 nM.
Compound `Cn1c(=O)cc(OCCCC(=O)NC2CCCC2)c2ccccc21` has an AC26 of 2400 nM.
Work on `Cn1cnc([N+](=O)[O-])c1S(=O)(=O)c1cccc(Cl)c1` yielded an AC26 of 1200 nM.
For `O=C(COc1ccccc1CNCc1ccccc1)Nc1ccccc1`, the AC26 was 850 nM.
For `Cc1cnc(C(=O)Nc2ccc(OC(F)(F)F)cc2)cn1`, the AC26 was 9150 nM.
`CC(=O)C1=C(C)OC(N)=C(C#N)C1c1cc([N+](=O)[O-])ccc1Cl` (configuration not stated) showed an AC26 of 2900 nM.
`Cc1cc(C)nc(/N=C(\N)Nc2ccc(CC(=O)OC(C)C)cc2)n1` was tested, and the AC26 was 5890 nM.
`O=c1[nH]c(O)c(/C=C2/C=CC(c3cc(Cl)ccc3Cl)=N2)c(=O)[nH]1` was tested, and the AC26 was 2610 nM.
In the case of `NNC(=O)c1nc(-c2ccccc2)cc(-c2ccccc2)n1`, the AC26 is reported as 2320 nM.
`CC1CCC2(CC1)NC(=O)N(CC(=O)Nc1ccc3c(c1)CCC3)C2=O` (configuration not stated) gave an AC26 of 826 nM.
Compound `COc1ccc(Nc2oc(-c3ccc(Cl)cc3)nc2C#N)cc1` has an AC26 of 348 nM.
With `Cc1cc(Nc2cc(Cl)cc(Cl)c2)nc(N)n1` the AC26 was 1280 nM.
`COc1ccc(/C=N/NC(=O)c2c(C)nc3ccc(Br)cn23)cc1OC` gave an AC26 of 2520 nM.
For `Cc1ccccc1OCCc1c(C)[nH]c(=S)[nH]c1=O`, the AC26 was 1700 nM.
`CCOC(=O)C1CCN(c2c(N3CCN(Cc4ccccc4)CC3)c(=O)c2=O)CC1` was tested, and the AC26 was 1810 nM.
With `COc1ccc(N/C=C/C(=O)c2cc(OC)c(OC)c(OC)c2)cc1` the AC26 was 28.7 nM.
With `CCCCCCn1c(=O)n2n(c1=O)[C@@H]1CN(S(=O)(=O)c3ccc(C)cc3)C[C@]1(O)[C@@H](OC(=O)NCc1ccccc1)C2` the AC26 was 763 nM.
`COc1ccc(Nc2nc(N(C)c3ccccc3)nc(N)c2[N+](=O)[O-])cc1` was tested, and the AC26 was 271 nM.
Work on `Cn1cccc1/C=C1\SC(=Nc2cccc(O)c2)NC1=O` yielded an AC26 of 2850 nM.
In the case of `Cc1ccc(NC(=O)C(Cc2ccccc2)N2C(=O)C3C4CCC(C4)C3C2=O)cc1Cl` (configuration not stated), the AC26 is reported as 3240 nM.
In the case of `COc1ccc(-c2[nH]nc(-c3ccccc3)c2-c2nc3ccccc3[nH]2)cc1`, the AC26 is reported as 3900 nM.
`CC(=O)/C=C/c1ccccc1Oc1c(F)c(F)nc(F)c1F` showed an AC26 of 183 nM.
In the case of `COc1ccccc1-c1cc(NC=O)c2ncc(-c3cccc(C(=O)N(C)C)c3)n2c1`, the AC26 is reported as 4020 nM.
`Cc1c(-c2cccc(Cl)c2)nc2ccccc2c1C(=O)OC/C(O)=C(\C#N)c1nc2ccccc2[nH]1` gave an AC26 of 5750 nM.
With `COc1ccc(NC(=O)C2(C)Cc3c(-c4cccc(C(N)=O)c4)ccnc3O2)cc1` (configuration not stated) the AC26 was 2320 nM.
`CCOc1ccc2nc(NCCNC(=O)Nc3cccc(C)c3)c(C#N)cc2c1` showed an AC26 of 4010 nM.
`COC(=O)C1=C(c2cc3ccccc3s2)C[C@@H]2CC[C@H]1N2C(=O)N1CCOCC1` gave an AC26 of 13600 nM.
In the case of `Cn1cccc1/C=C1\SC(=Nc2ccccc2)NC1=O`, the AC26 is reported as 1150 nM.
`Nc1nc(CN2CCN(Cc3ccccc3)CC2)nc(Nc2ccc3c(c2)OCCO3)n1` was tested, and the AC26 was 699 nM.
`Nc1ccc2nc(-c3ccccc3)c(-c3ccccc3)nc2c1` showed an AC26 of 1480 nM.
Compound `COc1ccc(CCNc2c3ccccc3nc3ccccc23)cc1OC` has an AC26 of 1040 nM.
`Cc1cc(N2CCCCC2)nc(NCc2ccccc2)n1` was tested, and the AC26 was > 19500 nM (inactive).
`Cc1ccc(S(=O)(=O)Cc2ccc(C(=O)N3CCN(c4cccc(C)c4C)CC3)o2)cc1` gave an AC26 of 3450 nM.
Compound `CC(=O)O[C@H]1C(=O)[C@@]2(C)C([C@H](OC(=O)c3ccccc3)[C@]3(O)C[C@H](O)C(C)=C1C3(C)C)[C@]1(OC(C)=O)CO[C@@H]1C[C@H]2O` (some centres not stated) has an AC26 of 6460 nM.
`C=C(C)[C@@]12OC3(c4ccccc4)O[C@@H]1C1[C@@H]4O[C@]4(CO)[C@@H](O)[C@]4(O)C(=O)C(C)=C[C@H]4[C@@]1(O3)[C@H](C)[C@H]2OC(=O)/C=C/C=C/c1ccccc1` (some centres not stated) was tested, and the AC26 was less than 1.2 nM.
Compound `COc1ccc2c(c1)[C@H]1[C@H](CO2)[C@H](c2ccccc2)[C@]2(C)C(=O)Nc3ccc(F)cc3C(=O)N12` has an AC26 of 568 nM.
For `NC(=O)CC(NC(=O)c1ccc(Br)cc1)c1ccc(N2CCCCCC2)c([N+](=O)[O-])c1` (configuration not stated), the AC26 was 1410 nM.
In the case of `COc1cc(F)ccc1-c1csc(C(NC(C)=O)c2cccc(F)c2)n1` (configuration not stated), the AC26 is reported as 206 nM.
`CC[C@H](C)C(=O)O[C@H]1CCC=C2C=C[C@H](C)[C@H](CC[C@@H]3C[C@@H](O)CC(=O)O3)[C@H]21` was tested, and the AC26 was 180 nM.
With `COc1cc(Nc2c3c(nc4ccccc24)CCCC3)cc(OC)c1OC` the AC26 was 581 nM.
With `O=C(C=Cc1ccccc1O)c1ccccc1O` the AC26 was 2850 nM.
In the case of `COc1ccc(C(=O)CC(SCC(NC(C)=O)C(=O)O)c2ccc(Cl)cc2)cc1OC` (configuration not stated), the AC26 is reported as 1440 nM.
Compound `CC(=O)Nc1cccc(-c2ccnc3c2CC(C)(C(=O)NCCC(F)(F)F)O3)c1` (configuration not stated) has an AC26 of 4320 nM.
`Cc1[nH][nH]c(=O)c1C(c1ccc(-c2ccc(F)cc2)o1)c1c(C)[nH][nH]c1=O` gave an AC26 of 4090 nM.
